Experimental data taken from PubChem BioAssay (NCI).
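Growth conditions: 96-well plates. Treatment: test compound, 48 hours, 5 concentrations. Analysis: linear interpolation between bracketing concentrations; unreached endpoints set to highest concentration. At the TGI there is no net growth.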

What was measured:
Assay in all cases: NCI-60 cell line screen, 48 h
[1] = test system: SF-295 CNS
[2] = test system: RPMI-8226 leukemia
[3] = test system: LOX IMVI melanoma
[4] = test system: SK-MEL-5 melanoma
[5] = test system: SR leukemia
[6] = test system: SN12C renal
[7] = test system: HCT-15 colon
[8] = test system: HOP-92 NSCLC
[9] = test system: KM12 colon
[10] = test system: MDA-MB-231 breast
[11] = test system: HOP-62 NSCLC
[12] = test system: NCI/ADR-RES ovarian
[13] = test system: HCT-116 colon
[14] = test system: NCI-H23 lung
[15] = test system: MDA-N
[16] = test system: MCF7 breast
[17] = test system: K-562 leukemia
[18] = test system: SNB-75 CNS
[19] = test system: HS 578T breast
[20] = test system: 786-0 renal
[21] = test system: SK-OV-3 ovarian
[22] = test system: U251 CNS
[23] = test system: SNB-19 CNS
[24] = test system: PC-3 prostate
[25] = test system: OVCAR-4 ovarian
[26] = test system: A549 NSCLC
[27] = test system: OVCAR-8 ovarian
[28] = test system: TK-10 renal
[29] = test system: OVCAR-3 ovarian
[30] = test system: BT-549 breast
[31] = test system: ACHN renal
[32] = test system: M14 melanoma
[33] = test system: UACC-62 melanoma
[34] = test system: CAKI-1 renal
[35] = test system: CCRF-CEM leukemia
[36] = test system: MDA-MB-435
[37] = test system: MALME-3M melanoma
[38] = test system: A498 renal
[39] = test system: IGROV1 ovarian
[40] = test system: MOLT-4 leukemia
[41] = test system: SW-620 colon
[42] = test system: SK-MEL-28 melanoma
[43] = test system: UO-31 renal
[44] = test system: SF-268 CNS
[45] = test system: RXF 393 renal
[46] = test system: OVCAR-5 ovarian
[47] = test system: SK-MEL-2 melanoma
[48] = test system: NCI-H226 lung
[49] = test system: UACC-257 melanoma
[50] = test system: EKVX NSCLC
[51] = test system: COLO 205 colon
[52] = test system: HT29 colon
[53] = test system: HL-60(TB) leukemia
[54] = test system: T-47D breast
[55] = test system: DU-145 prostate
[56] = test system: NCI-H460 lung
[57] = test system: HCC-2998 colon
[58] = test system: SF-539 CNS

With `Cc1ccc(/C=N/NS(=O)(=O)c2ccc(/C=C3\NC(=O)NC3=O)cc2)cc1` the TGI [1] was > 100 µM, the TGI [2] was > 100 µM and the TGI [3] was > 100 µM. For the same molecule, the TGI [4] was > 100 µM, the TGI [5] was > 100 µM and the TGI [6] was > 100 µM. For the same molecule, the TGI [7] was > 100 µM, the TGI [8] was > 100 µM and the TGI [9] was > 100 µM. The TGI [10] was > 100 µM, the TGI [11] was 91.1 µM and the TGI [12] was > 100 µM. The TGI [13] was > 100 µM, the TGI [14] was > 100 µM and the TGI [15] was > 100 µM. The TGI [16] was > 100 µM, the TGI [17] was > 100 µM and the TGI [18] was 47.7 µM. For the same molecule, the TGI [19] was 81.6 µM, the TGI [20] was > 100 µM and the TGI [21] was > 100 µM. For the same molecule, the TGI [22] was > 100 µM, the TGI [23] was > 100 µM and the TGI [24] was > 100 µM. For the same molecule, the TGI [25] was > 100 µM, the TGI [26] was > 100 µM and the TGI [27] was > 100 µM. The TGI [28] was > 100 µM, the TGI [29] was > 100 µM and the TGI [30] was > 100 µM. The TGI [31] was > 100 µM, the TGI [32] was > 100 µM and the TGI [33] was > 100 µM. The TGI [34] was > 100 µM, the TGI [35] was > 100 µM and the TGI [36] was > 100 µM. The TGI [37] was > 100 µM, the TGI [38] was > 100 µM and the TGI [39] was > 100 µM. For the same molecule, the TGI [40] was > 100 µM, the TGI [41] was > 100 µM and the TGI [42] was > 100 µM. For the same molecule, the TGI [43] was > 100 µM, the TGI [44] was 57.7 µM and the TGI [45] was > 100 µM. The TGI [46] was > 100 µM, the TGI [47] was > 100 µM and the TGI [48] was > 100 µM. The TGI [49] was > 100 µM, the TGI [50] was > 100 µM and the TGI [51] was > 100 µM. The TGI [52] was > 100 µM, the TGI [53] was > 100 µM and the TGI [54] was > 100 µM. The TGI [55] was > 100 µM, the TGI [56] was > 100 µM and the TGI [57] was > 100 µM.

`O=c1[nH]c2cc([N+](=O)[O-])ccc2nc1/C=C(\O)c1ccc(Cl)cc1` showed a TGI [1] of 27.4 µM, a TGI [2] of 65.2 µM and a TGI [3] of 25.4 µM. It also gave a TGI [4] of 51.2 µM, a TGI [58] of 23.1 µM and a TGI [5] of 38.9 µM. For the same molecule, the TGI [7] was 28.4 µM, the TGI [8] was 36.6 µM and the TGI [9] was 40 µM. It also gave a TGI [10] of 24.7 µM, a TGI [12] of 28.4 µM and a TGI [13] of 11.8 µM. The TGI [14] was 29.4 µM, the TGI [15] was 78.7 µM and the TGI [16] was 26.2 µM. For the same molecule, the TGI [17] was > 100 µM, the TGI [18] was 55 µM and the TGI [19] was 44.8 µM. The TGI [20] was 14.4 µM, the TGI [21] was 43.4 µM and the TGI [22] was 19.8 µM. The TGI [23] was 24 µM, the TGI [24] was 32.5 µM and the TGI [25] was 41.1 µM. For the same molecule, the TGI [26] was 22.6 µM, the TGI [27] was 21.5 µM and the TGI [28] was 16.5 µM. For the same molecule, the TGI [29] was 38.6 µM, the TGI [30] was 19.1 µM and the TGI [31] was 31.4 µM. The TGI [32] was 28.4 µM, the TGI [33] was 30.3 µM and the TGI [34] was 33.1 µM. It also gave a TGI [35] of 33.8 µM, a TGI [36] of 45.2 µM and a TGI [37] of 84.9 µM. The TGI [38] was 39.6 µM, the TGI [39] was 26.6 µM and the TGI [40] was 46.2 µM. It also gave a TGI [41] of 28.9 µM, a TGI [42] of 22.9 µM and a TGI [43] of 86.2 µM. The TGI [44] was 53.8 µM, the TGI [45] was 11.9 µM and the TGI [46] was 46 µM. For the same molecule, the TGI [47] was 36.4 µM, the TGI [48] was 40.6 µM and the TGI [49] was 60.5 µM. It also gave a TGI [50] of 35.5 µM, a TGI [51] of 78.5 µM and a TGI [52] of 32.7 µM. For the same molecule, the TGI [53] was 44.1 µM, the TGI [54] was 30.8 µM and the TGI [55] was 23 µM. For the same molecule, the TGI [56] was 24 µM and the TGI [57] was 72.3 µM.
